Experimental data from patent US7741359B2, “Hydrogen sulfide derivatives of non-steroidal anti-inflammatory drugs” (Antibe Therapeutics Inc., priority 2006, dated 2010).
Entries after “also recorded” stand apart in the source; their conditions may differ.

Columns and labels:
[1] = test system: leukocyte adherence to the vascular endothelium; test: Leukocyte adherence to the vascular endothelium, intravital microscopy of mesenteric venules; details: for Number of Adherent Leukocytes: mean ± SEM
Experimental: Briefly, post-capillary mesenteric venules in anesthetized rats are examined under a light microscope. […] All test compounds were prepared in a vehicle of 1% carboxymethylcellulose. Changes in leukocyte adherence within the venule were recorded with a video camera attached to the microscope, and quantification of the numbers of adherent leukocytes was performed in a blind manner through evaluation of the videotaped images. Each group consisted of 5 male, Wistar rats weighing 150-175 g. A leukocyte was considered “adherent” if it remained stationary for 30 seconds or more (results below are expressed as the mean ± SEM).

[2] = target: T1, COX-2 (Rattus norvegicus, UniProt P35355); test: Rat airpouch assay, exudate PGE2 after zymosan (inhibition of COX-2 in vivo); details: 60 μmol/kg; FIG. 11
T1 construct: from tissue; host or cells: rat subcutaneous airpouch (in vivo, zymosan-induced inflammation)
T1 sequence (P35355 18-604): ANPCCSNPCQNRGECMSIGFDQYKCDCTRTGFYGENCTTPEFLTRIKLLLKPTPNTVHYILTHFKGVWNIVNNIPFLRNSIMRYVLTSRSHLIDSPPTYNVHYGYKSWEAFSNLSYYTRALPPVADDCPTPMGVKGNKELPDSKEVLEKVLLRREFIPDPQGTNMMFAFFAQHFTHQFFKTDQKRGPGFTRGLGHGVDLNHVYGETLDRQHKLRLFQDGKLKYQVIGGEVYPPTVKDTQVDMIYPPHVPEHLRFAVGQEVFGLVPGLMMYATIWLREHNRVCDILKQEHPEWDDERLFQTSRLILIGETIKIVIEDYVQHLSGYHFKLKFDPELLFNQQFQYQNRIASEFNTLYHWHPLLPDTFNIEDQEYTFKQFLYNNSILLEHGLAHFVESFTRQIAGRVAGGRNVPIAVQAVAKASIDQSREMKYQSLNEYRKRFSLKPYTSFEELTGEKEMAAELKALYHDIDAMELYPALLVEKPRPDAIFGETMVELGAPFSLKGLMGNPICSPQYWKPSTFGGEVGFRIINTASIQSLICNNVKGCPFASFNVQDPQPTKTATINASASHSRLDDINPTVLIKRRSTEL
Experimental: Briefly, a subcutaneous “pouch” is created by repeated injections of air over several days. Once established, inflammation in the pouch can be induced by injection of 1 mL of 1% zymosan. […] Another group of 5 rats was treated with the vehicle, but received an injection of 0.9% sterile saline into the pouch rather than zymosan. […]
Each group consisted of 5 rats.

[3] = Incidence of gastric damage at the end of the leukocyte adherence experiment; details: for Percent Incidence of Gastric Damage: end of experiment
Experimental: Briefly, post-capillary mesenteric venules in anesthetized rats are examined under a light microscope. […] All test compounds were prepared in a vehicle of 1% carboxymethylcellulose. Changes in leukocyte adherence within the venule were recorded with a video camera attached to the microscope, and quantification of the numbers of adherent leukocytes was performed in a blind manner through evaluation of the videotaped images. Each group consisted of 5 male, Wistar rats weighing 150-175 g. A leukocyte was considered “adherent” if it remained stationary for 30 seconds or more (results below are expressed as the mean ± SEM). At the end of the experiment the stomach was opened and examined for the presence of gastric damage, under a dissecting microscope.

[4] = Gastric damage (gastric damage score) in rats after oral dosing; details: for gastric damage: oral 60 μmol/kg, evaluated 3 hours later, FIG. 3
[5] = target: T2, COX-1 (Rattus norvegicus, UniProt Q63921); test: Whole blood thromboxane B2 synthesis of treated rats (inhibition of COX-1); type: in vivo; details: for COX-1 activity (whole blood thromboxane B2 synthesis): oral 60 μmol/kg, FIG. 4
T2 construct: whole blood thromboxane synthesis, which occurs via COX-1; from tissue; host or cells: rat whole blood (ex vivo clotting after oral dosing)
T2 sequence (Q63921 27-602): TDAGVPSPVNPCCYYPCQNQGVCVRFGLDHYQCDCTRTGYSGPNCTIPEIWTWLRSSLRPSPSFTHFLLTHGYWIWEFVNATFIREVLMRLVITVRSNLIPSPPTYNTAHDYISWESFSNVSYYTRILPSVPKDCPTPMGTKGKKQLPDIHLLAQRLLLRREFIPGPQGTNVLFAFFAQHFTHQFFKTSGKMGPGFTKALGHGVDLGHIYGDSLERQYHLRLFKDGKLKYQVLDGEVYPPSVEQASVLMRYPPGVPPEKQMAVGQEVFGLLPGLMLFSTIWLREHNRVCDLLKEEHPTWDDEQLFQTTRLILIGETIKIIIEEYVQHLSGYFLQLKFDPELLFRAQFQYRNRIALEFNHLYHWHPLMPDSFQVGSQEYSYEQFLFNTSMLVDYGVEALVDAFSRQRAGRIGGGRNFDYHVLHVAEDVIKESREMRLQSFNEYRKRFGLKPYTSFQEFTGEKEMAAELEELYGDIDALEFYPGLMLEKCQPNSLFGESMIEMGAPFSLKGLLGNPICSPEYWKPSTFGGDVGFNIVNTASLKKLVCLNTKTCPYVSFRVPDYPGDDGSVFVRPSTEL
Experimental: Inhibition of COX-1 was also measured using the same rats. […] The samples were then centrifuged for 3 min at 9,000 g and the supernatant was frozen at −80° C. for subsequent measurement of thromboxane B2 concentrations using a specific ELISA.
Inhibition of COX-1 was also measured using the same rats, using the same method as described for FIG. 4. […]

[6] = Healing of acetic acid-induced gastric ulcers; type: in vivo, rat; details: starting 3 days after ulcer induction, FIG. 13
Experimental: Gastric ulcers were induced via serosal application of acetic acid, as described by Elliott et al., A nitric oxide-releasing nonsteroidal anti-inflammatory drug accelerates gastric ulcer healing in rats. Gastroenterology 1995; 109: 524-530. […] After 4 days of such treatment, the rats were euthanized and the stomach was excised and photographed. The area (in mm^2) of the ulcer was determined planimetrically by an individual unaware of the treatments given to the rats. In a subgroup of 5 rats euthanized 3 days after induction of gastric ulcers (i.e., prior to initiation of drug treatment), the mean surface area of the ulcers was 24±2 mm^2.

[7] = Carrageenan hindpaw edema model; type: in vivo, rat; details: oral, dose equimolar to diclofenac at 3 mg/kg, 30 min prior to carrageenan, compared with diclofenac, FIGS. 9, 10
Experimental: Male, Wistar rats weighing 175-200 g were given the test compounds orally 30 min prior to subplantar injection of 100 ul of 1% lambda carrageenan. Paw volume measured using an Ugo Basile hydroplethysmometer prior to carrageenan injection and at 1-h intervals thereafter for 5 h.

[8] = 60 μmol/kg twice-daily orally for 4 days

Row | Compound | number of adherent leukocytes compared to the parent NSAID alone ([1]; intragastric 30 μmol/kg) | Number of Adherent Leukocytes ([1]; intragastric 30 μmol/kg) [per 100 μm vessel length] | percent incidence of gastric damage compared to the parent NSAID alone ([3]; intragastric 30 μmol/kg) | Percent Incidence of Gastric Damage ([3]; intragastric 30 μmol/kg) [%] | also measured
1 | COc1ccc2cc(C(C)C(=O)Oc3ccc(-c4cc(=S)ss4)cc3)ccc2c1 (stereo not drawn) [Compound V, 2-(6-Methoxy-naphthale-2-yl)-propionic acid 4-(5-thioxo-5-H-[1,2]dithiol-3-yl)-phenyl ester] | – | – | – | – | number of adherent leukocytes compared to the parent NSAID alone ([1]; intragastric 60 μmol/kg): significantly reduced the number of adherent leukocytes per 100 μm vessel length; Number of Adherent Leukocytes ([1]; intragastric 60 μmol/kg): 3.5 ± 0.7 per 100 μm vessel length; COX-2 activity (exudate PGE2) [2]: significantly suppressed COX-2 activity as compared to the group treated with vehicle; percent incidence of gastric damage compared to the parent NSAID alone ([3]; intragastric 60 μmol/kg): significantly reduced the percent incidence of gastric damage when compared to naproxen alone; Percent Incidence of Gastric Damage ([3]; intragastric 60 μmol/kg): 0%; gastric damage [4]: not detectable; also recorded: elicited significantly less damage than naproxen itself; COX-1 activity (whole blood thromboxane B2 synthesis) [5]: significantly (*p<0.05) inhibited COX-1 activity as compared to the vehicle-treated group; also recorded: somewhat less with Compound V than with naproxen or Compound XX
2 | COc1ccc2cc(C(C)C(=O)Oc3ccc(C(N)=S)cc3)ccc2c1 (stereo not drawn) [Compound XX, 2-(6-Methoxy-naphthalen-2-yl)-propionic acid 4-thiocarbamyl-phenyl ester] | – | – | – | – | gastric damage [4]: not detectable; also recorded: elicited significantly less damage than naproxen itself; gastric ulcer healing (ulcer area) [6, 8]: exhibited significantly greater healing; COX-1 activity (whole blood thromboxane B2 synthesis) [5]: significantly (*p<0.05) inhibited COX-1 activity as compared to the vehicle-treated group; also recorded: significantly better at inhibiting thromboxane B2 synthesis than the ADT-OH equivalent, Compound V
3 | CC(=O)Oc1ccccc1C(=O)Oc1ccc(C(N)=S)cc1 [Compound XVI, 2-Acetoxy-benzoic acid 4-thiocarbamoyl-phenyl ester] | significantly reduced the number of adherent leukocytes per 100 μm vessel length when compared to aspirin alone | 2.3 ± 0.3 | significantly reduced the percent incidence of gastric damage when compared to aspirin alone | 0 | –
4 | Cc1ccc(Nc2c(F)cccc2Cl)c(CC(=O)Oc2ccc(C(N)=S)cc2)c1 [Compound XVIII, 4-thiocarbamoylphenyl 2-(2-(2-chloro-6-fluorophenylamino)-5-methylphenyl)acetate] | significantly reduced the number of adherent leukocytes per 100 μm vessel length when compared to lumiracoxib alone | 2.3 ± 0.4 | still showed no incidences of gastric damage | 0 | –
5 | COc1ccc2cc([C@H](C)C(=O)O)ccc2c1 [Naproxen, naproxen, reference compound] | – | – | – | – | Number of Adherent Leukocytes ([1]; intragastric 60 μmol/kg): 10.2 ± 0.4 per 100 μm vessel length; COX-2 activity (exudate PGE2) [2]: significantly suppressed COX-2 activity as compared to the group treated with vehicle; Percent Incidence of Gastric Damage ([3]; intragastric 60 μmol/kg): 100%; gastric ulcer healing (ulcer area) [6, 8]: exhibited similar degrees of healing
6 | O=C(Cc1ccccc1Nc1c(F)cccc1Cl)Oc1ccc(-c2cc(=S)ss2)cc1 [Compound III, [2-(2-chloro-6-fluorophenylamino)-phenyl]-acetic acid 4-(5-thioxo-5H-[1,2]dithiol-3-yl)-phenyl ester] | significantly reduced the number of adherent leukocytes per 100 μm vessel length when compared to lumiracoxib alone | 1.7 ± 0.3 | still showed no incidences of gastric damage | 0 | –
7 | CC(=O)Oc1ccccc1C(=O)Oc1ccc(-c2cc(=S)ss2)cc1 [Compound I, 4-(5-thioxo-5H-1,2-dithiol-3-yl)phenyl 2-acetoxybenzoate] | significantly reduced the number of adherent leukocytes per 100 μm vessel length when compared to aspirin alone | 2.5 ± 0.3 | significantly reduced the percent incidence of gastric damage when compared to aspirin alone | 20 | –
8 | NC(=S)c1ccc(OC(=O)Cc2ccccc2Nc2c(Cl)cccc2Cl)cc1 [Compound XVII, [2-(2,6-dichloro-phenylamino)-phenyl]-acetic acid 4-thiocarbamoyl-phenyl ester] | significantly reduced the number of adherent leukocytes per 100 μm vessel length | 2.8 ± 0.5 | significantly reduced the percent incidence of gastric damage when compared to diclofenac alone | 20 | paw edema (paw volume increase) [7]: reduced paw edema to a greater extent; paw edema (paw volume increase) ([7]; 3 mg/kg): comparable to the effect of diclofenac at a dose of 10 mg/kg; gastric damage score ([4]; rats fasted 18 h, oral, doses equimolar to diclofenac 20 mg/kg, 3 h after administration, FIG. 1): no gastric damage was seen; also recorded: elicited significantly less gastric damage than diclofenac; gastric ulcer healing (ulcer area) ([6]; 30 μmol/kg twice-daily orally for 4 days): exhibited significantly greater healing; inhibition at 4.1 mg/kg ([5]; rat, po, read-out: inhibition of whole blood thromboxane synthesis (COX-1)): > 80%
